From paper PMC10342707, “Identification of Regulatory Molecular “Hot Spots” for LH/PLOD Collagen Glycosyltransferase Activity” (International Journal of Molecular Sciences, 2023)

Columns and labels:
LH3/PLOD3 [1] = molecular target: T1, LH3/PLOD3 (Homo sapiens, UniProt O60568); experiment: luminescence-based Glc-T competition assay; assay type: biochemical; conditions: read-out: UDP-Glc (IC50)
T1 construct: 6xHis-tag and TEV site; secreted from HEK293-F cells
T1 sequence (O60568 25-738): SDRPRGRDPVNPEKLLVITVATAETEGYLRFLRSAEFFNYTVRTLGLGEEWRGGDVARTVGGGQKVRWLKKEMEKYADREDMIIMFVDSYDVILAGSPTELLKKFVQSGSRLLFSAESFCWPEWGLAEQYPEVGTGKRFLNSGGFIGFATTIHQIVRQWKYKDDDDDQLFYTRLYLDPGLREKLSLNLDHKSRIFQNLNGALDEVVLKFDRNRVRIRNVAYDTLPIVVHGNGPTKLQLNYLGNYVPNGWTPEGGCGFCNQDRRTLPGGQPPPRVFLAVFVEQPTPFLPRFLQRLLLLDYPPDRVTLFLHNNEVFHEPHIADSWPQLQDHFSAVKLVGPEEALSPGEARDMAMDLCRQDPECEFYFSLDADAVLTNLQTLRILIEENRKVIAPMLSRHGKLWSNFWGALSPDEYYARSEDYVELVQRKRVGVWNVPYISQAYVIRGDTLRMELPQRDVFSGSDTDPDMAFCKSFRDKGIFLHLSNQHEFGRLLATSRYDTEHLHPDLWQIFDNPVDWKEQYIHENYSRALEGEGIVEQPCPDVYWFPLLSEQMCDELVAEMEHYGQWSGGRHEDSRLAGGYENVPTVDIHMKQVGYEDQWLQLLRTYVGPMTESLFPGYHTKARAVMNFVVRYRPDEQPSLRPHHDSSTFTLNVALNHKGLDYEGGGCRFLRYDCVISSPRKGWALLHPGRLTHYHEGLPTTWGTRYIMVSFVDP
Text: luminescence-based Glc-T competition assay on LH3/PLOD3

LH3/PLOD3 [2] = molecular target: T1, LH3/PLOD3; experiment: differential scanning fluorimetry; assay type: binding; conditions: 50 mM MnCl2, 5 mM ligand, 25 mM HEPES, 500 mM NaCl, pH 8

O=C(O)[C@H]1O[C@H](OP(=O)(O)OP(=O)(O)OC[C@H]2O[C@@H](n3ccc(=O)[nH]c3=O)[C@H](O)[C@@H]2O)[C@H](O)[C@@H](O)[C@@H]1O [UDP-GlcA]
IC50 (LH3/PLOD3 [1]): > 10 mM
thermal shift (LH3/PLOD3 [2]): 1–1.5 °C

O=c1ccn([C@@H]2O[C@H](COP(=O)(O)OP(=O)(O)O[C@H]3OC[C@@H](O)[C@H](O)[C@H]3O)[C@@H](O)[C@H]2O)c(=O)[nH]1 [UDP-Xyl]
IC50 (LH3/PLOD3 [1]): 3.17 ± 0.211 mM

O=c1ccn([C@@H]2O[C@H](COP(=O)(O)OP(=O)(O)O)[C@@H](O)[C@H]2O)c(=O)[nH]1 [UDP]
thermal shift (LH3/PLOD3 [2]): 3–3.5 °C
